In this assay the test system is RBL-1 leukemia cells (Sf3b family members). Put plainly: Splice isoform biomarker qRT-PCR in rat RBL-1 leukemia cells. Format: cell-based. The following applies: 1 μM, 4 hr; different lots of Rebecsinib. The method, then:
For quantitative analysis of splice isoform expression, RNA editing rates, and whole gene expression by qRT-PCR, cells or tissue fragments were harvested in RNA lysis buffer and total RNA was extracted using RNeasy mini or micro extraction kits (QIAGEN, Germantown, MD) following the manufacturer's protocol including a DNase incubation step to digest any trace genomic DNA present. Levels of ADAR1 variants and LSC-specific transcripts were quantified by qRT-PCR as previously described.^14 RNA-editing site-specific qRT-PCR (RESSqPCR) was performed for variants in AZIN1 transcripts.^53 Additional species-specific primers were also designed to quantify intron retention rates in cells treated with Rebecsinib as a biomarker of response to RNA splicing modulation. […] Relative mRNA expression values were calculated using the 2^−ΔCT method, with normalization to untreated or vehicle-treated controls.^54
For multi-species biomarker development and transcript variant-specific qRT-PCR experiments, human AML cell lines KG-1a, MOLM-13, and HL-60, and rat leukemia cells RBL-1 were grown to confluence and treated with 1 μM Rebecsinib for 4 hr. Cells were collected and lysed in Qiagen RNA lysis buffer, and analyzed using the species-specific primers and qRT-PCR procedures described above.

Take `CC[C@H](OC)[C@@H](C)[C@H]1O[C@@H]1[C@@H](O)[C@H](C)/C=C/C=C(\C)[C@H]1OC(=O)C[C@H](O)CC[C@@](C)(O)[C@@H](OC(C)=O)/C=C/[C@@H]1C` [Rebecsinib]: the “intron retention in Sf3b family members” value is “rapidly induced”.

The values are drawn from patent publication US20260364072A1, “METHODS FOR PROMOTING EXPANSION OF HUMAN CD34+ CELLS IN VIVO AND FOR PROMOTING NEURAL REGENERATION” (THE REGENTS OF THE UNIVERSITY OF CALIFORNIA, priority 2023, published 2026).
